What is called IC50 is the midpoint of a concentration-inhibition curve.

Structures can show the parent of a compound that is named as a salt.

Results on 13 molecules are retold here after patent publication US20080188528A1, “Modulators of C3a receptor and methods of use thereof” (priority 2006, published 2008).

The test has as its target T1, human C3a receptor (C3aR) (Homo sapiens, UniProt Q16581).
T1 construct: expressed in transfected cells
T1 sequence (Q16581 1-482): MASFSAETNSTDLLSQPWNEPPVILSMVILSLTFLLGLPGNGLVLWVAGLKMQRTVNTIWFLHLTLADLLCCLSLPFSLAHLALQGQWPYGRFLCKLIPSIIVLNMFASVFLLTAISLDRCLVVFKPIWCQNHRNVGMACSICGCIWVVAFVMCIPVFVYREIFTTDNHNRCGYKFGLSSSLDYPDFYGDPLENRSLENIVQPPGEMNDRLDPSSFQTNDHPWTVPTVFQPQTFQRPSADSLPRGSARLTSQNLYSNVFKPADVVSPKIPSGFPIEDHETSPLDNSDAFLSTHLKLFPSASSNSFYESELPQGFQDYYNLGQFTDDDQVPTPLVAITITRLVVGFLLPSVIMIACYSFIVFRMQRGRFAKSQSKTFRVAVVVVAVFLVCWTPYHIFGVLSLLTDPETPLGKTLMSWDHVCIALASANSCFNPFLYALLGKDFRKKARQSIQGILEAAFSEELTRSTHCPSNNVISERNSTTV
In words: Inhibition of human [125I]-C3a binding to human C3a receptor (SPA, membranes of HEK293 cells expressing recombinant C3aR). The note with it: 0.1 nM [125I]-C3a, 3 hours at room temperature; Table 6. In outline: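 HEK293 C3aR membranes were pre-coupled to WGA SPA beads and incubated 3 h at room temperature with 0.1 nM [125I]-C3a in HEPES pH 7.4 buffer containing 0.25% BSA and 0.2% CHAPS, DMSO ≤1%. Nonspecific binding was defined with 1 μM unlabeled C3a. IC50 came from nonlinear least-squares fitting.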

For `N=C(CC(=O)O)NCCC[C@H](NC(=O)c1cccn(C(c2ccccc2)c2ccccc2)c1=O)C(=O)O` [Compound 96, (2S)-5-[(2-carboxyethanimidoyl)amino]-2-({[1-(diphenylmethyl)-2-oxo-1,2-dihydropyridin-3-yl]carbonyl}amino)pentanoic acid•TFA], the IC50 is less than 50 nM.

Turning to `N=C(N)NCCC[C@H](NC(=O)c1ccc(C(c2ccccc2)c2ccccc2)s1)C(=O)O` [Compound 97, (2S)-5-Carbamimidamido-2-({[5-(diphenylmethyl)thiophen-2-yl]carbonyl}amino)pentanoic acid], the IC50 was less than 50 nM. As to `N=C(N)NCCC[C@H](NC(=O)c1ccc(C(O)(c2ccccc2)c2ccccc2)s1)C(=O)O` [Compound 98, (2S)-5-Carbamimidamido-2-[({5-[hydroxy(diphenyl)methyl]thiophen-2-yl}carbonyl)amino]pentanoic acid], the IC50 is less than 50 nM. On to `N=C(N)NC(=O)CC[C@H](NC(=O)c1ccc(C(c2ccccc2)c2ccccc2)s1)C(=O)O` [Compound 99, (2S)-5-Carbamimidamido-2-({[5-(diphenylmethyl)thiophen-2-yl]carbonyl}amino)-5-oxopentanoicacid], for which the IC50 is less than 50 nM. `CC(=N)NCCC[C@H](NC(=O)c1cccn(Cc2ccccc2)c1=O)C(=O)O` [Compound 100, (2S)-2-{[(1-benzyl-2-oxo-1,2-dihydropyridin-3-yl)carbonyl]amino}-5-(ethanimidoylamino)pentanoic acid•TFA]: the IC50 lay in the range of 500 to 20000 nM. As for `CC(=N)NCCC[C@H](NC(=O)c1cccn(Cc2cccc(Cl)c2)c1=O)C(=O)O` [Compound 101, (2S)-2-({[1-(3-chlorobenzyl)-2-oxo-1,2-dihydropyridin-3-yl]carbonyl}amino)-5-(ethanimidoylamino)pentanoic acid•TFA], the IC50 fell in the range of 50 to 500 nM.

As to `CC(=N)NCCC[C@H](NC(=O)c1ccc(C(c2ccccc2)c2ccccc2)o1)C(=O)O` [Compound 102, (2S)-2-({[5-(Diphenylmethyl)furan-2-yl]carbonyl}amino)-5-(ethanimidoylamino)pentanoic acid], the IC50 was in the range of 50 to 500 nM. As for `CC(=N)NCCC[C@H](NC(=O)c1ccc(C(c2ccccc2)c2ccccc2)s1)C(=O)O` [Compound 103, (2S)-2-({[5-(diphenylmethyl)thiophen-2-yl]carbonyl}amino)-5-(ethanimidoylamino)pentanoic acid•TFA], the IC50 is 50 to 500 nM. Turning to `CC(=N)NCCC[C@H](NC(=O)c1cccn(Cc2ccccc2Cl)c1=O)C(=O)O` [Compound 104, (2S)-2-({[1-(2-chlorobenzyl)-2-oxo-1,2-dihydropyridin-3-yl]carbonyl}amino)-5-(ethanimidoylamino)pentanoic acid•TFA], the IC50 fell in the range of 500 to 20000 nM.

Consider `O=C(N[C@@H](Cc1c[nH]c2ccccc12)C(=O)O)c1cccn(C(c2ccccc2)c2ccccc2)c1=O` [Compound 105, (2S)-2-({[1-(Diphenylmethyl)-2-oxo-1,2-dihydropyridin-3-yl]carbonyl}amino)-3-(1H-indol-3-yl)propanoicacid], for which the IC50 lay within 50 to 500 nM. As for `CC(=N)NCCC[C@H](NC(=O)c1cccn(Cc2cccc(C(F)(F)F)c2)c1=O)C(=O)O` [Compound 106, (2S)-5-(ethanimidoylamino)-2-[({2-oxo-1-[3-(trifluoromethyl)benzyl]-1,2-dihydropyridin-3-yl}carbonyl)amino]pentanoic acid•TFA], the IC50 lay within 50 to 500 nM. Take `CC(=N)NCCC[C@H](NC(=O)c1cccn(Cc2ccccc2C(F)(F)F)c1=O)C(=O)O` [Compound 107, (2S)-5-(ethanimidoylamino)-2-[({2-oxo-1-[2-(trifluoromethyl)benzyl]-1,2-dihydropyridin-3-yl}carbonyl)amino]pentanoic acid•TFA]: the IC50 was 500 to 20000 nM.

On to `CC(=N)NCCC[C@H](NC(=O)c1ccc(C(c2ccccc2)c2ccccc2)cc1)C(=O)O` [Compound 108, (2S)-2-({[4-(Diphenylmethyl)phenyl]carbonyl}amino)-5-(ethanimidoylamino)pentanoic acid], for which the IC50 fell in the range of 500 to 20000 nM.
